Data from patent US20070225213A1, “Nucleic acid carriers for delivery of therapeutic agents” (priority 2006, published 2007).
Like-named read-outs stand apart in the source and are kept apart here.

Experiments:
BHK21 = experiment: Cell uptake by MTN fluorescence EX620/EM680 (Examples 10 and 13, EX051605); type: cell-based, hamster; conditions: 10% w/w loading in DNA
Protocol: Materials: HSGDNA, MTN, ODNAS1116 (phosphorothioated, single stranded DNA, and Beta-cyclodextrin polymer (BCD-SBE, KKBIOMED Inc.) were previously prepared in water at 10 mg/ml, 1 mg/ml, 0.95 mg/ml, and 10 mg/ml respectively.
Procedure: For NAC-MTN, combined 37 ul HSGDNA (herring genomic DNA, Promega Inc.), 1426 ul HBSS( Hank's buffered saline, Sigma-Aldrich), with 37 ul of MTN, followed by 1500 ul 2× DMEM media to give 3 ml final and 24 uM (24 micro-molar) MTN and 10% w/w drug loading of MTN. For NAC-MTN (AR1505) combined 62 ul of HSDNA (deg. herring sperm DNA, Sigma) with 2377 ul HBSS, 61.7 ul MTN, 2500 ul 2× media to give 5 ml final and 24 uM MTN and 10% w/w drug loading of MTN to HSDNA. […]
Plate#1 Media was aspirated and cells treated with 100 ul of either NAC-MTN, CD-MTN, or MTN at 24 uM MTN final or 12.3 ug/ml MTN in all samples. Samples containing MTN were incubated 4 hours, removed, and fluorescence taken at EX620/EM680. […]
Samples were incubated 4 hours, removed, and MTN fluorescence taken at EX620/EM680. […] Average MTN fluorescence was averaged from 6 wells. For each cell type, MTN fluorescence was highest in MTN treated cells, followed by CD-MTN, and lowest in NAC-MTN. […]
PLATE#2: Dispensed 50 ul from source plate into plate #2 to give 150 ul final vol 4.1 ug/ml, 8 uMfinal per well, pre-read fluorescence w samples (bkgd) incubated 5 hr, removed, replaced w/ media, read fluor. […]

[1] = In vivo MTN distribution in organs after single i.v. dose (Example 15, EX102005); set-up: species or system mice; conditions: iv, 0.075 mg MTN per mouse i.v.
Protocol: Procedure: Prior to formulation of MTN with carrier, the DNA carrier was standardized and assayed for loading limits with MTN by absorbance spectrometry. […] Herring sperm […] […] One milliliter (1 ml) of each homogenate was then transferred to a 1.7 ml centrifuge tube and centrifuged for 10 min at 10000 rcf. Supernatants were removed and fluorescence of 0.3 ml of samples was read at 620/680 nm s=50. […] Total MTN was calculated by converting fluorescence data to mg/ml MTN using a MTN standard curve. The mg/ml MTN was then multiplied by total vol. homogenate to obtain total MTN per organ.

For `O=C1c2c(O)ccc(O)c2C(=O)c2c(NCCNCCO)ccc(NCCNCCO)c21` [MTN, mitoxantrone], the “% reduction in fluorescence relative to MTN alone (MTN = 0%)” value (BHK21; Plate#1, 24 uM MTN, 4 hours) was 0%, the “% reduction in fluorescence relative to MTN alone (MTN = 0%)” value (BHK21; Plate#2, 8 uM MTN) was 0% and the concentration at 1 h ([1]; heart, read-out: Density of MTN in tissue: Heart) was 96000 ng/g. It also gave a concentration at 1 h ([1]; kidney, read-out: Density of MTN in tissue: Kidney) of 49000 ng/g, a concentration at 1 h ([1]; liver, read-out: Density of MTN in tissue: Liver) of 10000 ng/g and a concentration at 1 h ([1]; lung, read-out: Density of MTN in tissue: Lung) of 43000 ng/g.
